Paper PMC10988555, “Exploiting Co(III)-Cyclopentadienyl Complexes To Develop Anticancer Agents” (Inorganic Chemistry, 2024)

Columns and labels:
[1] = tested on: A2780 (human ovarian carcinoma) cell line; test: Antiproliferative activity, MTS assay, A2780; format: cell-based; conditions: for IC50: 48 h exposure, MTS assay; for Selectivity index (SI), A2780: IC50 fibroblasts/IC50 A2780, values with * calculated taking fibroblast IC50 as 100 μM (minimal value)
Protocol: (§1) Human colorectal carcinoma cell line (HCT116), human breast cancer cell lines (MDA-MB-231 and MCF-7), and normal human primary dermal fibroblasts neonatal (PCS-201-010) cell line were grown in DMEM (Dulbecco’s modified Eagle’s medium) (Invitrogen Corp., Grand Island, NY, USA) supplemented with 10% (v/v) fetal bovine serum and 1% (v/v) antibiotic/antimycotic solution (Invitrogen Corp.). The human ovarian carcinoma (A2780) cell line was cultivated using RPMI (Roswell Park Memorial Institute) medium supplemented as in DMEM medium. The supplemented medium is named a complete medium. Cells were grown in an incubator with a humidified atmosphere at 5% (v/v) CO2 and 37 °C. All cell lines were purchased from ATCC (ATCC, American Type Culture Collection).
(§2) The evaluation of the cytotoxic potential of complexes 1–4 was obtained through in vitro measurements of the antiproliferative activity of these complexes. Cells were plated in 96-well plates at 7.5 × 10^4 cells/mL and incubated at 37 °C with 5% (v/v) CO2. After 24 h, the culture medium was replaced with fresh medium (100 μL) containing 0.1–50 μM of the different complexes and incubated for 48 h in tumor cell lines or containing 0.1–100 μM of the different complexes and incubated for 48 h in fibroblasts. […] The fibroblast cell line was used as a control of the cytotoxicity of the complexes for healthy cells. Cell viability was evaluated using Cell Titer 96 Aqueous Non-Radioactive Cell Proliferation Assay (Promega, Madison, WI, USA) using 3-(4,5-dimethylthiazol-2-yl)-5-(3-carboxymethoxyphenyl)-2-(4-sulfophenyl)-2H-tetrazolium inner salt (MTS), as described previously.[60] In metabolically active cells, enzymes present in the mitochondria catalyze a reaction in which NADPH/NADH is produced. These enzymes reduce the MTS reagent into a brownish product, Formazan, which can be quantified by measuring the absorbance at 490 nm. The quantity of formazan produced is directly proportional to the number of viable cells in the culture. This quantification was executed with a Biorad microplate reader Model 680 (Bio-Rad, Hercules, CA, USA). Half maximal inhibitory concentration (IC50) was calculated using GraphPad Prism 6 (GraphPadSoftware). We have calculated the ratio between the IC50 of fibroblasts and the IC50 of HCT116, A2780, MDA-MB-231, or MCF-7 cell lines for complexes 1–4 that was named herein as the Selectivity index (SI). To ensure the solubility of the complexes in all biological assays, complex solutions were freshly prepared and well solubilized before addition to the cells.

A2780 cells = test: Cell cycle progression (PI flow cytometry, double thymidine block); format: cell-based, human; conditions: A2780, 24 h; complexes at IC50, DOX 0.4 μM, cisplatin 5 μM
Protocol: The interference of the copper complexes 2–4 in the cell cycle progression was evaluated in A2780 cells, seeded in 6-weel plates, with a density of 2 × 10^5 cells/well, and incubated for 8 h at the same conditions as described above. After that incubation time, the cells were synchronized in early S-phase with a 2 mM thymidine solution (Sigma, St. Louis, USA) for a 16 h period. Media with thymidine was replaced by fresh media and, after 8 h, another 2 mM thymidine solution was added to the wells (double thymidine block) and incubated for 16 h. […] Cells were incubated for 9, 18, or 24 h, and, at each hour, the cells were treated with TE and centrifuges at 650 × g for 5 min at 4 °C. The pellet was resuspended in PBS 1× and centrifuged at 3000 × g for 5 min at 4 °C. Later, the pellet was resuspended in 100 μL of PBS 1×, and 1 mL of a solution of 80% (v/v) ethanol was gently added to the cells. Cells were stored at 4 °C for at least 12 h and then centrifuged for 10 min at 7500 × g at 4 °C, treated with 250 μL of 50 μg/mL RNase A, and incubated for 30 min at 37 °C. After incubation, 100 μL of PI (25 μg/mL) was added to the cells as well as 650 μL of PBS 1×. The DNA content was evaluated on an Attune Acoustic Focusing Flow Cytometer (ThermoFisher Scientific) and results were analyzed by the respective software.

[2] = tested on: MCF-7 (human breast cancer) cell line; test: Antiproliferative activity, MTS assay, MCF-7; format: cell-based; conditions: for IC50: 48 h exposure, MTS assay
Protocol: as §1, §2

A2780 cell line [3] = test: Apoptosis induction, Annexin V/PI flow cytometry; format: cell-based, human; conditions: A2780, IC50 of each complex, 48 h
Protocol: The induction of apoptosis was evaluated by flow cytometry in the A2780 cell line, through the Alexa Fluor Annexin V/Dead Cell Apoptosis Kit (ThermoFisher Scientific). A2780 cells were seeded at a density of 2 × 10^5 cells/well in 6-well plates and incubated for 24 h. After that time, the medium was replaced by medium mixed with complexes 2–4 at their IC50. […] After a period of 48 h of incubation, cells were washed with PBS 1× and TE was used to detach the cells. The cells were resuspended in annexin-binding buffer 1× and incubated for 15 min at RT with Alexa Fluor 488 annexin V and Propidium Iodide. All samples were analyzed by an Attune Acoustic Focusing Flow Cytometer (ThermoFisher Scientific) and respective software.

[4] = tested on: MDA-MB-231 (human breast cancer) cell line; test: Antiproliferative activity, MTS assay, MDA-MB-231; format: cell-based; conditions: 48 h exposure
Protocol: as §1, §2

A2780 cell line [5] = test: Internalization of cobalt by ICP-AES; format: cell-based, human; conditions: A2780, 10× IC50, ICP-AES, cellular fraction
Protocol: Internalization of the cobalt complexes was evaluated by ICP-AES in the A2780 cell line. For this, the A2780 cell line was seeded in 25 cm^2 T-flasks at a density of 5 × 10^5 cells/T-flask and incubated for 24 h at 37 °C with 5% (v/v) CO2. […] Cells were then incubated for 3, 6, and 12 h at the same conditions as before and for 12 h at 4 °C. The culture media was recovered to a new tube (supernatant fraction) and cells were detached from the T-flask with 2 mL of TripLE Express (TE) (Gibco by life technologies) and centrifuged at 750 × g for 5 min. Then, fresh aqua regia was added to the supernatant tube and to the cellular fractions and incubated overnight at room temperature (RT) in the hood fume. Samples were delivered to Laboratório de Análises/LAQV and the levels of cobalt were evaluated by ICP-AES.

With Cc1ccnc(-c2cc(C)ccn2)c1.O=S(=O)([O-])C(F)(F)F.O=S(=O)([O-])C(F)(F)F.[Co+3].c1cc[cH-]c1.c1ccc(P(c2ccccc2)c2ccccc2)cc1 [Complex 2, [Co(η^5-C5H5)(PPh3)(Me2bipy)][(CF3SO3)2]] the IC50 [1] was 6.1 ± 0.1 µM, the “Selectivity index (SI), A2780” value [1] was 16.4* and the “% of cells in the G2/M phase” value (A2780 cells) was 34.1%. For the same molecule, the IC50 [2] was > 50 µM, the “percentage of cells in initial apoptosis” value (A2780 cell line [3]) was 5.0% and the “percentage of cells in late apoptosis” value (A2780 cell line [3]) was 0.8%. The “percentage of cells in necrosis” value (A2780 cell line [3]) was 7.8%, the total apoptosis levels (A2780 cell line [3]) was 5.8% and the IC50 [4] was > 50 µM. The “Percentage of internalization, 3 h at 37 °C” value (from here on “Percentage … 3 h at 37 °C”) (A2780 cell line [5]) was 40.6% ± 2.0, the “Percentage of internalization, 6 h at 37 °C” value (from here on “Percentage … 6 h at 37 °C”) (A2780 cell line [5]) was 50.7% ± 3.3 and the “Percentage of internalization, 12 h at 37 °C” value (from here on “Percentage … 12 h at 37 °C”) (A2780 cell line [5]) was 92.6% ± 6.5.
With O=S(=O)([O-])C(F)(F)F.O=S(=O)([O-])C(F)(F)F.[Co+3].c1cc[cH-]c1.c1ccc(P(c2ccccc2)c2ccccc2)cc1.c1cnc2c(c1)ccc1cccnc12 [Complex 3, [Co(η^5-C5H5)(PPh3)(phen)][(CF3SO3)2]] the IC50 [1] was 6.2 ± 0.1 µM, the “Selectivity index (SI), A2780” value [1] was 16.1* and the “% of cells in the G2/M phase” value (A2780 cells) was 20.7%. The IC50 [2] was > 50 µM, the “percentage of cells in initial apoptosis” value (A2780 cell line [3]) was 5.0% and the “percentage of cells in late apoptosis” value (A2780 cell line [3]) was 0.9%. The “percentage of cells in necrosis” value (A2780 cell line [3]) was 6.1%, the total apoptosis levels (A2780 cell line [3]) was 5.9% and the IC50 [4] was > 50 µM. The “Percentage … 3 h at 37 °C” value (A2780 cell line [5]) was 49.7% ± 3.5, the “Percentage … 6 h at 37 °C” value (A2780 cell line [5]) was 31.9% ± 10.2 and the “Percentage … 12 h at 37 °C” value (A2780 cell line [5]) was 76.9% ± 15.9.
In the case of Nc1cc2cccnc2c2ncccc12.O=S(=O)([O-])C(F)(F)F.O=S(=O)([O-])C(F)(F)F.[Co+3].c1cc[cH-]c1.c1ccc(P(c2ccccc2)c2ccccc2)cc1 [Complex 4, [CoCp(PPh3)(NH2phen)][(CF3SO3)2]], the IC50 [1] is reported as 4.7 ± 0.09 µM, the “Selectivity index (SI), A2780” value [1] is reported as 21.3* and the “% of cells in the G2/M phase” value (A2780 cells) is reported as 28%. For the same molecule, the IC50 [2] was 10.2 ± 0.1 µM, the “Selectivity index (SI), MCF-7” value ([2]; IC50 fibroblasts/IC50 MCF-7, value with * calculated taking fibroblast IC50 as 100 μM (minimal value)) was 9.8* and the “percentage of cells in initial apoptosis” value (A2780 cell line [3]) was 5.6%. For the same molecule, the “percentage of cells in late apoptosis” value (A2780 cell line [3]) was 0.9%, the “percentage of cells in necrosis” value (A2780 cell line [3]) was 5.9% and the total apoptosis levels (A2780 cell line [3]) was 6.5%. For the same molecule, the IC50 [4] was > 50 µM, the “Percentage … 3 h at 37 °C” value (A2780 cell line [5]) was 33.7% ± 2.7 and the “Percentage … 6 h at 37 °C” value (A2780 cell line [5]) was 43.6% ± 5.8. The “Percentage … 12 h at 37 °C” value (A2780 cell line [5]) was 89.3% ± 10.6.
